Entries after “also recorded” stand apart in the source; their conditions may differ. Non-standard residues stand in square brackets, D forms with d. Residues, ends and D or L forms follow the SMILES beside them. *: point of attachment. Lauroyl = CCCCCCCCCCCC(=O)*; NH(CH2)4NH2 = NCCCCN*
Experiments:
tumor lines = experiment: MTT cytotoxicity assay, statements on the whole panel; type: cell-based, human; settings: MTT assay, panel of tumor cell lines
Summary of the method: (§1)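 Compound cytotoxicity is assessed with the MTT method in human cancer cells and normal 2B lung epithelial cells.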

HepG2 cells = experiment: Extracellular and intracellular compound in HepG2 cells (LC-MS); type: in vitro ADME, human; settings: 3 h
Description: Comparing the concentration of compounds (7, 10, 10a) in extracellular and intracellular after the HepG2 cell line dealt with compounds. HepG2 cells were plated in six-well plates at a density of 1.5 × 10^5 cells/well and grew overnight. After cell treated with compounds (5 μg/mL) for 3 h, the compounds were extracted with MeOH for cells culture medium and cells separately as followed the reported method. The compounds were quantified by LC‒MS (5%‒95% ACN in 15 min). The cell numbers of HepG2 with the compounds treatments was determined. […]
To determine whether the difference in bioactivity of products (with or without Put moiety) is due to variations in cellular uptake, we treated hepatoma cell line HepG2 with compounds 7 (C12 acyl), 10 (C14 acyl), and 10a (C14 acyl and without Put) (Supplementary Fig. 33c). The cells were treated for 3 h, and then culture medium and cells were extracted separately. LC-MS was used to detect and quantify the compounds.
At lower concentrations (5000 ng/mL, and 10,000 ng in total for each group), and […]
may be contributing to the differences in antitumor activity (Supplementary Fig. 33b).
This could be due to differences in the speed of cellu lar uptake or differences in drug metabolism rate, requiring further experimental investigation.

human cells Kasumi = experiment: MTT cytotoxicity assay, Kasumi; type: cell-based; settings: 24 h
Summary of the method: as §1

[1] = system: S. brevitalea DSM 7029 wild type; experiment: Growth curve of DSM 7029 wild type with compounds (Bioscreen C); type: cell-based, Schlegelella brevitalea DSM 7029; settings: CYMG medium
Description: The growth curve was tested by Bioscreen C (Labsystems, Finland) as follow. Overnight culture was inoculated into 400 μL fresh CYMG medium in the ratio of 1:100 (the concentration of compounds was 0.1 μg/μL) and shook in normal speed. The OD600 value was gained in every hour for 42 h in total. Biofilm formation was measured at 18 h and 36 h respectively, as reported previously. In brief, the free-floating cells were removed, and the microtitre plate was washed with PBS (pH 7.4) after incubation for 18 h and 36 h. The biofilm was stained by adding 200 µL of crystal violet (0.1%) solution. Crystal violet solution was removed after 15 min and 200 µL of ethanol (95%) was added. The absorbance at OD600 was read using a microplate reader (Infinite M200, Tecan, Männedorf, Switzerland). Meanwhile, free-floating cells were used to test the secretion of pigment. The bacteria were removed and the supernatant was measured at OD600.

PvdQ-like acylase GdnD = experiment: Deacylation by acylase GdnD (cell lysate, LC-MS); type: biochemical, Schlegelella brevitalea DSM 7029; settings: 100 μL E. coli cell lysate with GdnD, 5 μL 10 mM substrate, 30 °C; 7 and 8: 4 h, 16 h, 27 h; other substrates 16 h; boiled lysate as control
Description: The hydrolysis function of PvdQ-like acylase GdnD was tested. GdnD is predicted to be a periplasmic protein by PSORTb[13]. The collected pellet from 50 mL LB dissolved with 8 mL buffer C (50 mM Tris, 300 mM NaCl, 5 mM MgCl2, pH 7.6), and lysed by cell disruption. Then, one hundred microliter of the cell lysate was incubated with 5 μL 10 mM substrates 7 and 8 for 4 h, 16 h, and 27 h at 30 °C. The negative control was boiled cell lysate. The other substrates (13, 14, 15, 16, and 17) incubated with the cell lysate dealt for 16 h at 30 °C. Then, the reaction was stopped by the addition of the 100 μL MeOH, and the final mixture was checked by LC‒MS analysis (5%‒95% ACN in 15 min) according to the above condition.

Q: With `CCCCCCCCCCCC(=O)N[C@H](CCSC)C(=O)N[C@H](CC(N)=O)C(=O)N1CCC[C@H]1C(=O)N[C@H](C(=O)N[C@H](Cc1ccccc1)C(=O)N1CCC[C@H]1C(=O)N[C@@H](Cc1c[nH]c2ccccc12)C(=O)N[C@@H](C(=O)N[C@@H](C)C(=O)N[C@H](C)C(=O)N[C@@H](CO)C(=O)N[C@@H](C)C(=O)NCCCCN)C(C)C)C(C)C` [Compound 7, Glidonin G] (Lauroyl-[dM][dN]PV[dF]PW[dV]A[dA]SA-{NH(CH2)4NH2}) as the compound, how does the “cytotoxic / antitumor activity in words” value (tumor lines) read?
A: broad-spectrum cytotoxicity

Q: And the “total quantities (intracellular plus extracellular) in words” value (HepG2 cells; HepG2, 5000 ng/mL, compared to 10a)?
A: lower total quantities

Q: And the “Intracellular compound, Average” value (HepG2 cells; HepG2, six-well plates, 5 μg/mL (10,000 ng in total), cells extracted with MeOH, mean of n = 3)?
A: 13.4894 ng

Q: What about the “Extracellular compound, Average” value (HepG2 cells; HepG2, six-well plates, 5 μg/mL (10,000 ng in total), culture medium extracted with MeOH, mean of n = 3) of the same compound?
A: 2764.81 ng

Q: What about the IC50 (human cells Kasumi) of the same compound?
A: 7.93 ± 0.35 µM

Q: What about the “effect on growth of DSM 7029 wild type in words” value ([1]; compound 0.1 μg/μL, OD600 every hour for 42 h, Bioscreen C) of the same compound?
A: weak inhibition of growth; also recorded: obviously inhibit the growth

Q: What about the “OD600 of wild type DSM 7029 with addition of compounds” value ([1]; control OD600 0.6) of the same compound?
A: 0.4

Q: What about the “deacylation by GdnD, nonacylated product by LC-MS” value (PvdQ-like acylase GdnD) of the same compound?
A: nonacylated products 1 and 2 were detected
